From US10328077B2 (CELGENE CORPORATION, priority 2016, dated 2019)

Legend:
[1] = target: human LSD-1 (Homo sapiens (Human), UniProt O60341); assay: In vitro enzyme inhibition assay LSD-1 (TR-FRET); format: biochemical; conditions: TR-FRET, H3K4me1-biotin labeled peptide
Text: This assay determines the ability of a test compound to inhibit LSD-1 demethylase activity.
The enzymatic assay of LSD-1 activity is based on Time Resolved-Fluorescence Resonance Energy Transfer (TR-FRET) detection.

[2] = test system: CD11b expression in THP-1 (AML) cells; assay: LSD-1 CD11b cellular assay (flow cytometry); conditions: Homo sapiens, THP-1, 96 h, read-out: THP-1 IC50

Row | IC50 [1] | IC50 [2] | Compound
1 | < 0.1 µM | < 0.1 µM | Cn1c(N2CCC(N)CC2)nc(-c2ccc(C#N)c(F)c2)c(-c2cccc(F)c2)c1=O [Example 102, 4-[2-(4-aminopiperidin-1-yl)-5-(3-fluorophenyl)-1-methyl-6-oxopyrimidin-4-yl]-2-fluorobenzonitrile]
2 | < 0.1 µM | < 0.1 µM | CNC1CCN(c2nc(-c3ccc(C#N)c(F)c3)c(-c3ccc(N(C)C)nc3)c(=O)n2C)CC1 [Example 83, 4-[5-(6-dimethylamino-pyridin-3-yl)-1-methyl-2-(4-methylamino-piperidin-1-yl)-6-oxo-1,6-dihydro-pyrimidin-4-yl]-2-fluoro-benzonitrile]
3 | < 0.1 µM | < 0.1 µM | Cn1c(N2CCC(N)CC2)nc(-c2ccc(C#N)c(F)c2)c(-c2ccc3ccn(C)c3c2)c1=O [Example 76, 4-[2-(4-amino-piperidin-1-yl)-1-methyl-5-(1-methyl-1H-indol-6-yl)-6-oxo-1,6-dihydro-pyrimidin-4-yl]-2-fluoro-benzonitrile]
4 | < 0.1 µM | < 0.1 µM | CNC(=O)c1ccc(-c2c(-c3ccc(C#N)c(F)c3)nc(N3CCC(N)CC3)n(C)c2=O)cn1 [Example 50, 5-[2-(4-amino-piperidin-1-yl)-4-(4-cyano-3-fluoro-phenyl)-1-methyl-6-oxo-1,6-dihydro-pyrimidin-5-yl]-pyridine-2-carboxylic acid methylamide]
5 | < 0.1 µM | < 0.1 µM | COc1ccc(-c2c(-c3ccc(C#N)c(F)c3)nc(N3CCC(C)(N)CC3)n(C)c2=O)cc1F [Example 32, 4-[2-(4-amino-4-methyl-piperidin-1-yl)-5-(3-fluoro-4-methoxy-phenyl)-1-methyl-6-oxo-1,6-dihydro-pyrimidin-4-yl]-2-fluoro-benzonitrile]
6 | < 0.1 µM | < 0.1 µM | COc1ccc(-c2c(-c3ccc(C#N)c(F)c3)nc(N3CCC[C@H](N)C3)n(C)c2=O)cc1 [Example 31, 4-[2-((3S)-3-amino-piperidin-1-yl)-5-(4-methoxy-phenyl)-1-methyl-6-oxo-1,6-dihydro-pyrimidin-4-yl]-2-fluoro-benzonitrile]
7 | < 0.1 µM | < 0.1 µM | Cn1c(N2CCC(N)CC2)nc(-c2ccc(C#N)c(F)c2)c(-c2ccc3[nH]ccc3c2)c1=O [Example 73, 4-[2-(4-amino-piperidin-1-yl)-5-(1H-indol-5-yl)-1-methyl-6-oxo-1,6-dihydro-pyrimidin-4-yl]-2-fluoro-benzonitrile]
8 | < 0.1 µM | < 0.1 µM | COc1ccc(-c2c(-c3ccc(C#N)c(F)c3)nc(N3CCCNCC3)n(C)c2=O)cc1F [Example 46, 4-[2-[1,4]diazepan-1-yl-5-(3-fluoro-4-methoxy-phenyl)-1-methyl-6-oxo-1,6-dihydro-pyrimidin-4-yl]-2-fluoro-benzonitrile]
9 | < 0.1 µM | < 0.1 µM | Cn1c(N2CCC(N)CC2)nc(-c2ccc(C#N)c(F)c2)c(-c2ccc(CCO)cc2)c1=O [Example 99, 4-[2-(4-aminopiperidin-1-yl)-5-[4-(2-hydroxyethyl)phenyl]-1-methyl-6-oxopyrimidin-4-yl]-2-fluorobenzonitrile]
10 | < 0.1 µM | < 0.1 µM | CN(C)C1CCN(c2nc(-c3ccc(C#N)c(F)c3)c(-c3ccc4cn(C)nc4c3)c(=O)n2C)CC1 [Example 80, 4-[2-(4-dimethylamino-piperidin-1-yl)-1-methyl-5-(2-methyl-2H-indazol-6-yl)-6-oxo-1,6-dihydro-pyrimidin-4-yl]-2-fluoro-benzonitrile]
11 | < 0.1 µM | < 0.1 µM | COc1c(F)cc(-c2c(-c3ccc(C#N)cc3)nc(N3CCC(N)CC3)n(C)c2=O)cc1F [Example 38, 4-[2-(4-aminopiperidyl)-5-(3,5-difluoro-4-methoxyphenyl)-1-methyl-6-oxohydropyrimidin-4-yl]benzenecarbonitrile]
12 | < 0.1 µM | < 0.1 µM | Cn1c(N2CCC(N)CC2)nc(-c2ccc(C#N)c(F)c2)c(-c2ccc(CO)cc2)c1=O [Example 100, 4-[2-(4-aminopiperidin-1-yl)-5-[4-(hydroxymethyl)phenyl]-1-methyl-6-oxopyrimidin-4-yl]-2-fluorobenzonitrile]
13 | < 0.1 µM | < 0.1 µM | COc1ccc(-c2c(-c3ccc(C#N)c(F)c3)nc(N3CCC(N)CC3)n(CC(N)=O)c2=O)cc1 [Example 16, 2-[2-(4-amino-piperidin-1-yl)-4-(4-cyano-3-fluoro-phenyl)-5-(4-methoxy-phenyl)-6-oxo-6H-pyrimidin-1-yl]-acetamide]
14 | < 0.1 µM | < 0.1 µM | Cn1c(N2CCC(N)CC2)nc(-c2ccc(C#N)c(F)c2)c(-c2ccc(S(C)(=O)=O)cc2)c1=O [Example 105, 4-[2-(4-aminopiperidin-1-yl)-1-methyl-5-(4-methylsulfonylphenyl)-6-oxopyrimidin-4-yl]-2-fluorobenzonitrile]
15 | < 0.1 µM | < 0.1 µM | Cn1c(N2CCC(N)CC2)nc(-c2ccc(C#N)c(F)c2)c(C#CC2CCCC2)c1=O [Example 14, 4-[2-(4-amino-piperidin-1-yl)-5-cyclopentylethynyl-1-methyl-6-oxo-1,6-dihydro-pyrimidin-4-yl]-2-fluoro-benzonitrile]
16 | < 0.1 µM | < 0.1 µM | Cn1c(N2CCC(N)CC2)nc(-c2ccc(C#N)c(F)c2)c(-c2ccc3occc3c2)c1=O [Example 18, 4-[2-(4-amino-piperidin-1-yl)-5-benzofuran-5-yl-1-methyl-6-oxo-1,6-dihydro-pyrimidin-4-yl]-2-fluoro-benzonitrile]
17 | < 0.1 µM | < 0.1 µM | COCc1ccc(-c2c(-c3ccc(C#N)c(F)c3)nc(N3CCC(N)CC3)n(C)c2=O)cc1 [Example 107, 4-[2-(4-aminopiperidin-1-yl)-5-[4-(methoxymethyl)phenyl]-1-methyl-6-oxopyrimidin-4-yl]-2-fluorobenzonitrile]
18 | < 0.1 µM | < 0.1 µM | CN(C)c1ncc(-c2c(-c3ccc(C#N)c(F)c3)nc(N3CCC(N)CC3)n(C)c2=O)cn1 [Example 49, 4-[2-(4-amino-piperidin-1-yl)-2′-dimethylamino-1-methyl-6-oxo-1,6-dihydro-[5,5′]bipyrimidinyl-4-yl]-2-fluoro-benzonitrile]
19 | < 0.1 µM | < 0.1 µM | CNC1CCN(c2nc(-c3ccc(C#N)c(F)c3)c(-c3ccc(OC)c(F)c3)c(=O)n2C)CC1 [Example 12, 2-fluoro-4-[5-(3-fluoro-4-methoxy-phenyl)-1-methyl-2-(4-methylamino-piperidin-1-yl)-6-oxo-1,6-dihydro-pyrimidin-4-yl]-benzonitrile]
20 | < 0.1 µM | < 0.1 µM | Cn1c(N2CCC(N)CC2)nc(-c2ccc(C#N)c(F)c2)c(-c2ccc(Cl)cc2)c1=O [Example 106, 4-[2-(4-aminopiperidin-1-yl)-5-(4-chlorophenyl)-1-methyl-6-oxopyrimidin-4-yl]-2-fluorobenzonitrile]
21 | < 0.1 µM | < 0.1 µM | CN(C)c1ccc(-c2c(-c3ccc(C#N)c(F)c3)nc(N3CCCNCC3)n(C)c2=O)cn1 [Example 63, 4-[2-[1,4]diazepan-1-yl-5-(6-dimethylamino-pyridin-3-yl)-1-methyl-6-oxo-1,6-dihydro-pyrimidin-4-yl]-2-fluoro-benzonitrile]
22 | < 0.1 µM | < 0.1 µM | Cn1c(N2CCC(N)CC2)nc(-c2ccc(C#N)c(F)c2)c(-c2ccc(N3CCCC3)nc2)c1=O [Example 60, 4-[2-(4-amino-piperidin-1-yl)-1-methyl-6-oxo-5-(6-pyrrolidin-1-yl-pyridin-3-yl)-1,6-dihydro-pyrimidin-4-yl]-2-fluoro-benzonitrile]
23 | < 0.1 µM | < 0.1 µM | CNc1ccc(-c2c(-c3ccc(C#N)c(F)c3)nc(N3CCC(N)CC3)n(C)c2=O)cc1 [Example 90, 4-[2-(4-aminopiperidin-1-yl)-1-methyl-5-[4-(methylamino)phenyl]-6-oxopyrimidin-4-yl]-2-fluorobenzonitrile]
24 | < 0.1 µM | < 0.1 µM | CN(C)c1ccc(-c2c(-c3ccc(C#N)c(F)c3)nc(N3CCC(N)CC3)n(C)c2=O)cc1 [Example 59, 4-[2-(4-amino-piperidin-1-yl)-5-(4-dimethylamino-phenyl)-1-methyl-6-oxo-1,6-dihydro-pyrimidin-4-yl]-2-fluoro-benzonitrile]
25 | < 0.1 µM | < 0.1 µM | CNC1CCN(c2nc(-c3ccc(C#N)c(F)c3)c(-c3ccc(OC)nc3)c(=O)n2C)CC1 [Example 58, 2-fluoro-4-[5-(6-methoxy-pyridin-3-yl)-1-methyl-2-(4-methylamino-piperidin-1-yl)-6-oxo-1,6-dihydro-pyrimidin-4-yl]-benzonitrile]

Row | Compound | IC50 [1] | IC50 [2]
26 | Cn1c(N2CCC(N)CC2)nc(-c2ccc(C#N)cc2)c(-c2ccc(C(N)=O)c(F)c2)c1=O [Example 41, 4-[2-(4-aminopiperidyl)-6-(4-cyanophenyl)-3-methyl-4-oxo(3-hydropyrimidin-5-yl)]-2-fluorobenzamide] | < 0.1 µM | 0.1 to 1 µM
27 | COc1ccc(-c2c(-c3ccc(C#N)c(F)c3)nc(N3CC(N)C3)n(C)c2=O)cc1 [Example 64, 4-[2-(3-amino-azetidin-1-yl)-5-(4-methoxy-phenyl)-1-methyl-6-oxo-1,6-dihydro-pyrimidin-4-yl]-2-fluoro-benzonitrile] | < 0.1 µM | 0.1 to 1 µM
28 | COc1ccc(-c2c(-c3ccc(C#N)c(F)c3)nc(NC[C@@H]3CCNC3)n(C)c2=O)cc1 [Example 52, 2-fluoro-4-{5-(4-methoxy-phenyl)-1-methyl-6-oxo-2-[(3R)-(pyrrolidin-3-ylmethyl)-amino]-1,6-dihydro-pyrimidin-4-yl}-benzonitrile] | < 0.1 µM | 0.1 to 1 µM
29 | COc1ccc(-c2c(-c3ccc(C#N)c(F)c3)nc(N3CCC[C@@H](N)C3)n(C)c2=O)cc1F [Example 25, 4-[2-((3R)-3-aminopiperidyl)-5-(3-fluoro-4-methoxyphenyl)-1-methyl-6-oxohydropyrimidin-4-yl]-2-fluorobenzenecarbonitrile] | < 0.1 µM | < 0.1 µM
